Measured values reported in patent EP1935887A1, “Heterocyclic substituted carbonyl derivatives and their use as dopamine D3 receptor ligands” (Aventis Pharmaceuticals Inc., priority 2001, dated 2002).

Target: T1, Cloned Human Dopamine D3 Receptors (Homo sapiens, UniProt P35462)
T1 construct: expressed in transfected cells; membrane homogenate
Test: [N-Methyl-3H]Spiroperidol binding to cloned human dopamine D3 receptors
Conditions: D3 Ki (nM)
Procedure, shortened: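 Membranes from CHO cells stably expressing human D3 receptor, homogenised in 10% DMSO and stored at -80°C. Binding uses [N-methyl-3H]spiroperidol in Tris buffer, pH 7.7.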

T1 sequence (P35462 whole entry): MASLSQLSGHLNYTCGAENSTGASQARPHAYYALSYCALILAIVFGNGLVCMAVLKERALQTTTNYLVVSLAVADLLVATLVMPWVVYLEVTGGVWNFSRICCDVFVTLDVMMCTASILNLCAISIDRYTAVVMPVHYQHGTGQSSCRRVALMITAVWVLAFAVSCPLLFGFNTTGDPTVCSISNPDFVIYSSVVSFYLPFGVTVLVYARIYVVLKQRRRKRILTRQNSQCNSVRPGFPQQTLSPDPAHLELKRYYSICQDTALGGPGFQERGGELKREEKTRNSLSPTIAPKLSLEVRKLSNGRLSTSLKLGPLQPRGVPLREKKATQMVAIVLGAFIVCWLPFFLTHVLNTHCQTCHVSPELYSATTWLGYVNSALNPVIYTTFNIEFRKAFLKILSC

Point of comparison: `Cn1nc(C2CCN(C[C@@H]3C[C@H]3C(=O)NCCCN3CCCCC3)CC2)c2cccc(C(F)(F)F)c21` [compound 833090], Ki 41.8 nM. Against it:
- O=C(NCCCn1ccnc1)[C@@H]1C[C@H]1CN1CCC(c2nn(-c3ccc(C(F)(F)F)cc3)c3ccccc23)CC1 [compound 831311] — within 1.5-fold, 38.7 nM
- Cn1nc(N2CCN(CC3CC3C(=O)NCCCn3ccnc3)CC2)c2sccc21 (stereo not drawn) [compound 831673] — 1.8-fold lower, 23.5 nM
- O=C(NC1CCN(CC2CCCCC2)CC1)C1CC1CN1CCC(c2noc3ccsc23)CC1 (stereo not drawn) [compound 831823] — 18-fold lower, 2.37 nM
- COc1ccccc1CN1CCC(NC(=O)C2CC2CN2CCC(c3noc4ccsc34)CC2)CC1 (stereo not drawn) [compound 831991] — 58-fold lower, 0.722 nM
- CN1CCCC1CCNC(=O)C1CC1CN1CCN(c2csc3cc(C(F)(F)F)ccc23)CC1 (stereo not drawn) [compound 832217] — within 1.5-fold, 44.1 nM
- O=C(NC1CCN(Cc2ccc(F)c(F)c2)CC1)C1CC1CN1CCC(c2noc3ccsc23)CC1 (stereo not drawn) [compound 832342] — 540-fold lower, 0.077 nM
- O=C(NC1CCN(Cc2cc(F)ccc2F)CC1)C1CC1CN1CCC(c2noc3ccsc23)CC1 (stereo not drawn) [compound 832345] — 29-fold lower, 1.46 nM
- O=C(NC1CCN(Cc2ccc(C(F)(F)F)cc2)CC1)C1CC1CN1CCC(c2noc3ccsc23)CC1 (stereo not drawn) [compound 832349] — 50-fold lower, 0.843 nM
- O=C(C1CC1CN1CCC(c2noc3ccsc23)CC1)N1CCC(Nc2ccc(Cl)cc2)CC1 (stereo not drawn) [compound 832395] — within 1.5-fold, 30.2 nM
- O=C(NC1CCN(Cc2cccc(F)c2)CC1)[C@@H]1C[C@H]1CN1CCC(c2noc3ccsc23)CC1 [compound 832727] — 35-fold lower, 1.19 nM
- O=C([C@@H]1C[C@H]1CN1CCC(c2noc3ccsc23)CC1)N1CCN(Cc2ccc(Cl)cc2)CC1 [compound 833128] — within 1.5-fold, 28.7 nM
- O=C(NC1CCN(C(=O)Nc2ccc(F)cc2)CC1)[C@@H]1C[C@H]1CN1CCC(c2noc3ccsc23)CC1 [compound 833715] — 7.3-fold lower, 5.7 nM
- Cn1nc(C2CCN(C[C@@H]3C[C@H]3C(=O)N[C@H]3CC[C@H](C)CC3)CC2)c2cc(C(F)(F)F)ccc21 [compound 833769] — 26-fold lower, 1.63 nM

Same assay, conditions: read-out: D3 Ki

Point of comparison: `CC(C)(C)OC(=O)N1CCC(CNC(=O)C2CC2CN2CCN(c3csc4cc(C(F)(F)F)ccc34)CC2)C1` (stereo not drawn) [compound 833625], Ki 22.2 nM. Against it:
- COc1ccc2[nH]cc(CCNC(=O)[C@@H]3C[C@H]3CN3CCC(c4noc5ccsc45)CC3)c2c1 [compound 831275] — 4.3-fold lower, 5.15 nM
- COc1ccc2c(CCNC(=O)[C@@H]3C[C@H]3CN3CCC(c4noc5ccsc45)CC3)c[nH]c2c1 [compound 831276] — 5.8-fold lower, 3.85 nM
- O=C(NCCCc1ccccc1)[C@@H]1C[C@H]1CN1CCC(c2cc3ccccc3s2)CC1 [compound 831489] — within 1.5-fold, 16.9 nM
- O=C(NCCCn1ccnc1)[C@@H]1C[C@H]1CN1CCN(c2noc3ccsc23)CC1 [compound 831493, 2R-(4-Thieno[2,3-d]isoxazol-3-yl-piperazin-1-ylmethyl)-1 R-cyclopropanecarboxylic acid (3-imidazol-1-yl-propyl)-amide] — 4.5-fold lower, 4.95 nM
- O=C(NCCCc1ccccc1)[C@@H]1C[C@H]1CN1CCN(c2noc3ccsc23)CC1 [compound 831494] — within 1.5-fold, 28.3 nM
- COc1cccc2c(C3CCN(C[C@@H]4C[C@H]4C(=O)N4CCC(Oc5ccc(F)cc5)CC4)CC3)noc12 [compound 831878] — 8.5-fold higher, 189 nM
- COc1ccc2c(c1)c(N1CCN(C[C@@H]3C[C@H]3C(=O)N[C@H]3CC[C@H](O)CC3)CC1)nn2-c1ccc(C(F)(F)F)cc1 [compound 831949] — within 1.5-fold, 29 nM
- O=C(NC1CCC(O)CC1)C1CC1CN1CCN(c2noc3ccsc23)CC1 (stereo not drawn) [compound 831955] — 2.1-fold higher, 47.3 nM
- O=C(C1CC1CN1CCC(c2noc3ccsc23)CC1)N1CCN(CCc2ccccn2)CC1 (stereo not drawn) [compound 832001] — 7.1-fold higher, 157 nM
- Cc1nc(N)sc1CCNC(=O)C1CC1CN1CCC(c2noc3ccsc23)CC1 (stereo not drawn) [compound 832045] — within 1.5-fold, 22 nM
- O=C(C1CC1CN1CCC(c2noc3ccsc23)CC1)N1CCN(CCC2CCCCC2)CC1 (stereo not drawn) [compound 832058] — within 1.5-fold, 24.2 nM
- CC1CCC(NC(=O)C2CC2CN2CCC(c3noc4c(C(F)(F)F)cccc34)CC2)CC1 (stereo not drawn) [compound 832203] — 4.7-fold lower, 4.76 nM
- O=C(NCCCN1CCOCC1)[C@@H]1C[C@H]1CN1CCC(c2noc3c(C(F)(F)F)cccc23)CC1 [compound 832273] — 9.2-fold higher, 205 nM
- O=C(NC1CCNCC1)[C@@H]1C[C@H]1CN1CCN(c2csc3cc(C(F)(F)F)ccc23)CC1 [compound 832502] — 8.3-fold lower, 2.67 nM
- Cn1nc(C2CCN(C[C@@H]3C[C@H]3C(=O)NCCCn3ccnc3)CC2)c2cccc(C(F)(F)F)c21 [compound 832654, 2R-[4-(1-Methyl-7-trifluoromethyl-1 H-indazol-3-yl)-piperidin-1-ylmethyl]-1 R-cycloproanecarboxylic acid (3-imidazol-1-yl-propyl)-amide] — 4.7-fold lower, 4.72 nM
- O=C(NC1CCN(CC2CC2)CC1)[C@@H]1C[C@H]1CN1CCN(c2csc3cc(C(F)(F)F)ccc23)CC1 [compound 832734] — 2.3-fold lower, 9.85 nM
- O=C(NC1CCN(Cc2cccc(F)c2)CC1)[C@@H]1C[C@H]1CN1CCN(c2csc3cc(C(F)(F)F)ccc23)CC1 [compound 832736] — 8.1-fold lower, 2.74 nM
- O=C(NC1CCN(Cc2ccc(F)cc2)CC1)[C@@H]1C[C@H]1CN1CCN(c2csc3cc(C(F)(F)F)ccc23)CC1 [compound 832738] — 6.8-fold lower, 3.26 nM
- COc1ccc2c(c1)c(N1CCN(C[C@@H]3C[C@H]3C(=O)NCCCN3CCN(C)CC3)CC1)nn2C [compound 833121] — within 1.5-fold, 26.5 nM
- O=C(NC1CCN(Cc2ccc(F)c(F)c2)CC1)[C@@H]1C[C@H]1CN1CCC(c2noc3ccsc23)CC1 [compound 833165] — 21-fold lower, 1.07 nM
- Cn1nc(C2CCN(C[C@@H]3C[C@H]3C(=O)N[C@H]3CC[C@H](C)CC3)CC2)c2cccc(C(F)(F)F)c21 [compound 833305] — 2.5-fold lower, 8.81 nM
- COc1ccc2c(c1)c(N1CCN(C[C@@H]3C[C@H]3C(=O)N3CCC(CCN4CCCC4)CC3)CC1)nn2C [compound 833628] — 4.3-fold higher, 95.8 nM
- COc1ccc2c(c1)c(N1CCN(C[C@@H]3C[C@H]3C(=O)NC[C@H]3CCN(C(=O)OC(C)(C)C)C3)CC1)nn2C [compound 833630] — 2.3-fold higher, 52.1 nM
- COc1ccc2c(c1)c(N1CCN(C[C@@H]3C[C@H]3C(=O)NCCCN(C)C)CC1)nn2C [compound 833631] — within 1.5-fold, 31.3 nM
- C[C@H]1CC[C@H](NC(=O)[C@@H]2C[C@H]2CN2CCC(c3csc4c(C(F)(F)F)cccc34)CC2)CC1 [compound 833690, 2R-[4-(7-Trifluoromethyl-benzo[b]thiophen-3-yl)-piperidin-1-ylmethyl]-1R-cyclopropanecarboxylic acid (trans-4-methyl-cyclohexyl)-amide] — 2.8-fold lower, 7.97 nM
- C[C@H]1CC[C@H](NC(=O)[C@@H]2C[C@H]2CN2CCC(c3nc4cc(Cl)ccc4o3)CC2)CC1 [compound 833692] — 3.3-fold higher, 72.9 nM
- O=C(NCCCn1ccnc1)[C@@H]1C[C@H]1CN1CCN(c2csc3ncccc23)CC1 [compound 833821, 2R-(4-Thieno[2,3-b]pyridin-3-yl-piperazin-1-ylmethyl)-1R-cyclopropanecarboxylic acid (3-imidazol-1-yl-propyl)-amide] — 3.2-fold lower, 6.91 nM
- Cn1nc(N2CCN(C[C@@H]3C[C@H]3C(=O)NCCCn3ccnc3)CC2)c2ccccc21 [compound 833822] — 35-fold lower, 0.64 nM
- O=C(NCCCn1ccnc1)[C@@H]1C[C@H]1CN1CCN(c2nn(-c3ccc(F)cc3)c3ccccc23)CC1 [compound 833823] — 35-fold lower, 0.637 nM
- C[C@H]1CC[C@H](NC(=O)[C@@H]2C[C@H]2CN2CCN(c3nn(-c4cccc(F)c4)c4ccsc34)CC2)CC1 [compound 833856] — 7.4-fold lower, 3.01 nM
- C[C@H]1CC[C@H](NC(=O)[C@@H]2C[C@H]2CN2CCN(c3nn(-c4ccc(OC(F)(F)F)cc4)c4ccsc34)CC2)CC1 [compound 833876] — 2.3-fold higher, 50.3 nM
- O=C(NCCCn1ccnc1)[C@@H]1C[C@H]1CN1CCC(c2csc3cc(C(F)(F)F)ccc23)CC1 [compound 834003] — 6.3-fold lower, 3.51 nM
- C[C@H]1CC[C@H](NC(=O)[C@@H]2C[C@H]2CN2CCC(c3csc4cc(C(F)(F)F)ccc34)CC2)CC1 [compound 834016] — 14-fold lower, 1.63 nM
- COc1cccc2c(C3CCN(C[C@@H]4C[C@H]4C(=O)N[C@H]4CC[C@H](C)CC4)CC3)nn(C)c12 [compound 834054] — 1.6-fold lower, 13.8 nM

Same assay, conditions: the 16th table; read-out: D3 Ki

Point of comparison: `O=C(NCCCn1ccnc1)C1(CCN2CCN(c3csc4cc(C(F)(F)F)ccc34)CC2)CC1` [compound 832231, 1-{2-[4-(6-Trifluoromethyl-benzo[b]thiophen-3-yl)-piperazin-1-yl]-ethyl}-cyclopropanecarboxylic acid (3-imidazol-1-yl-propyl)-amide], Ki 6.93 nM. Against it:
- COc1c(F)ccc2c(C3CCN(CCC4(C(=O)N[C@H]5CC[C@H](C)CC5)CC4)CC3)noc12 [compound 833330] — 10-fold higher, 72.7 nM
